From patent US20200038641A1, “DRUG DELIVERY DEVICE WITH REMOVABLE PODS AND RELATED PODS, METHODS AND SYSTEMS” (priority 2017, published 2020)
Converted amounts (≈) assume the structure as drawn. Where two headings read alike, the source gives them in different places. Each block holds one compound with its values, some of them ahead of it.

What was measured:
[1] = sheep, in vivo
Procedure: FIG. 15 illustrates a graph of cervicovaginal lavage concentration (median+SD) of estonogestrel (1510) and ethiny estradiol (1505) delivered simultaneously via combination pod IVRs over 28 days in sheep (n=3). Inverted triangles: estonogestrel; Diamonds: ethiny estradiol.
FIG. 15 illustrates a graph of ETG-EE release: ETG (1510); EE (1505). The pod-in-rings for this example delivered etonogestrel (ETG) and […]. The silicone pod IVRs contained two pods of EE at 16 mg API per pod (32 mg drug per ring) and ETG at 10 mg API per pod (20 mg drug per ring). Median ETG CVL levels (13±6.9 nM) were 8 times higher than the corresponding […] levels (1.6±1.2 nM), in agreement with the relative daily release rates of ETG and EE from the NuvaRing® (120 μg day^−1 and 15 μg day^−1, respectively). Plasma levels were not measured, the preliminary results should imply a match for in vivo and in vitro release compared to Nuvaring®.

[2] = cited from earlier work
[3] = women, after 7 days of IVR use
Source text: The trial consisted of an open-label, crossover design where six participants sequentially used a TDF pod-IVR for seven days followed by a TDF-FTC pod-IVR, with a washout period of at least 14 days between each treatment period. Women who were clinically deemed eligible returned to the clinic for IVR insertion visit (Visit 1, TDF IVR; Visit 5, TDF-FTC IVR) after cessation of menses. Women returned for Visit 2 (TDF IVR) or Visit 6 (TDF-FTC IVR) on Day 2 (±1 d) after IVR insertion and for Visit 3 (TDF IVR) or Visit 7 (TDF-FTC IVR) on Day 7 (±1 d) when the IVRs were removed. At Visit 3/7, vaginal biopsies were obtained, and the IVRs were collected. Tissue samples were ultimately reported as ng/mg or fmol/mg, respectively, following normalization to net biopsy or Dacron swab weight.

[4] = systemic delivery; cited from earlier work
[5] = beyond 190° C.; cited from earlier work
HSV = experiment: Inhibition of HSV infection by acyclovir, dose-response curve; format: cell-based; conditions: drug added at the time of HSV challenge and in the overlay medium; read-out: concentration of acyclovir that inhibits infection by 50% (IC50)
Procedure: The concentration of acyclovir that inhibits infection by 50% (IC50) when drug was added at the time of HSV challenge and in the overlay medium was ˜700 ng/mL.
In FIG. 16, panel A (1605), the percentage inhibition of HSV infection was determined in the presence of increasing concentrations of acyclovir (ACV). In panel B (1610) the percentage inhibition of HSV infection was determined in the presence of the indicated CVL sample or control fluid. Results are means from duplicate wells and each participant is represented by a different symbol (1615); the horizontal lines (1620) indicate the medians for the groups. In panel C (1625), the relationship between drug levels and percentage inhibition was determined by the Spearman correlation coefficient. Filled circles (1630) represent CVL samples obtained 24 h after oral VCV dosing, and open circles (1635) are CVL samples obtained 7 days after ring insertion.

ETG CVL levels relative to estradiol (E2) levels [1]: 8 times
Compound: C#C[C@]1(O)CC[C@H]2[C@@H]3CCC4=CC(=O)CC[C@@H]4[C@H]3C(=C)C[C@@]21CC [ETG, Etonogestrel]
solubility in water [2]: highly hydrophobic

vaginal biopsy homogenate tissue levels [3]: high enough for PrEP action
Compound: Nc1nc(=O)n([C@@H]2CS[C@H](CO)O2)cc1F [FTC, Emtricitabine]

Compound: Cc1nc(N(C)C(=O)Cc2ccc(-c3ccccn3)cc2)sc1S(N)(=O)=O [Pritelivir]
solubility in water [2]: insoluble in water | solubility in water ([2]; listed as pritelivir): low solubility | toxicity when delivered systemically [4]: significant toxicity

Compound: CCNC(=O)[C@@H]1CCCN1C(=O)[C@H](CCCNC(=N)N)NC(=O)[C@H](CC(C)C)NC(=O)[C@@H](CC(C)C)NC(=O)[C@H](Cc1ccc(O)cc1)NC(=O)[C@H](CO)NC(=O)[C@H](Cc1c[nH]c2ccccc12)NC(=O)[C@H](Cc1c[nH]cn1)NC(=O)[C@@H]1CCC(=O)N1 [leuprolide]
thermal stability [5]: not heat-stable beyond 190 °C

vaginal biopsy homogenate tissue levels [3]: high enough for PrEP action
Compound: CC(Cn1cnc2c(N)ncnc21)OCP(=O)(O)OP(=O)(O)OP(=O)(O)O (stereo in doubt) [TFV-DP, Tenofovir diphosphate]

Compound: Nc1nc2c(ncn2COCCO)c(=O)[nH]1 [acyclovir]
IC50 (HSV): ~0.7 µg/mL (≈ 3.11 µM) | solubility in water [2]: extremely water soluble | thermal stability [5]: higher thermal stability even beyond 190 °C

Compound: C[C@@H](O)[C@@H]1NC(=O)[C@H](CCCCN)NC(=O)[C@@H](Cc2c[nH]c3ccccc23)NC(=O)[C@H](Cc2ccccc2)NC(=O)[C@@H](NC(=O)[C@H](N)Cc2ccccc2)CSSC[C@@H](C(=O)N[C@H](CO)[C@@H](C)O)NC1=O [octreotide]
solubility in water [2]: very soluble

Compound: C#C[C@]1(O)CC[C@H]2[C@@H]3CCc4cc(O)ccc4[C@H]3CC[C@@]21C [EE, Ethinyl Estradiol]
solubility in water [2]: highly hydrophobic
